In BigSolDB 2.1:

Conditions: in acetone

CC[C@H](C)C(=O)O[C@H]1C[C@@H](C)C=C2C=C[C@H](C)[C@H](CC[C@@H]3C[C@@H](O)CC(=O)O3)[C@H]21
Conditions | solubility (mole fraction)
278.65 K | 0.00637
283.2 K | 0.00742
288.2 K | 0.00869
293.25 K | 0.0104
298.75 K | 0.0123
303.95 K | 0.0157
308.25 K | 0.0183
313.25 K | 0.0226
318.15 K | 0.0272
322.65 K | 0.0321
